# Reference: the supplement of paper PMC4862054
# Columns and labels:
# Conditions in all cases: incubation time: 72 h
# MDA-MB-231 [1] = assay: drug sensitivity score (DSS), CellTiter-Glo (DSS (AUC-based score)); higher = stronger drug effect (viability inhibition or cytotoxicity); extreme values may be limits of the assay
# Summary of the method: (§1)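 The drug sensitivity score reflects the area under a fitted dose-response curve. To obtain it, breast cancer cells in 20 µl suspension were seeded into 384-well plates containing compound at 5 concentrations, 10-fold apart over a compound-specific 10,000-fold range, and incubated 72 h. CellTox Green fluorescence (485/520 nm) was read first and CellTiter-Glo luminescence second, after 10 min at room temperature. Each plate was normalised to 0.1 % DMSO and a positive kill control.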
# HCC1937 [2] = assay: as above
# Summary of the method: as §1
# DU-4475 [3] = assay: as above
# Summary of the method: as §1
# CAL-148 [4] = assay: as above
# Summary of the method: as §1
# HCC1599 [5] = assay: as above
# Summary of the method: as §1
# CAL-120 = assay: as above
# Summary of the method: as §1
# MFM-223 [6] = assay: as above
# Summary of the method: as §1
# CAL-51 [7] = assay: as above
# Summary of the method: as §1
# MDA-MB-436 [8] = assay: as above
# Summary of the method: as §1
# HCC1143 [9] = assay: as above
# Summary of the method: as §1
# SK-BR-3 [10] = assay: as above
# Summary of the method: as §1
# BT-549 [11] = assay: as above
# Summary of the method: as §1
# CAL-85-1 [12] = assay: as above
# Summary of the method: as §1
# MDA-MB-231 [13] = assay: normalised viability (% of control), CellTiter-Blue; higher = more viable cells (about 100 = DMSO control)
# Summary of the method: (§2)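 Each value is normalised viability at a single listed concentration of the series. Breast cancer cell lines in 384-well plates were incubated 72 h with compound and read by CellTiter-Blue fluorescence at 560/590 nm, with vehicle set to 100 and a positive kill control to 0 on every plate.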
# HCC1937 [14] = assay: as above
# Summary of the method: as §2
# MDA-MB-468 = assay: as above
# Summary of the method: as §2
# DU-4475 [15] = assay: as above
# Summary of the method: as §2
# CAL-148 [16] = assay: as above
# Summary of the method: as §2
# HCC1599 [17] = assay: as above
# Summary of the method: as §2
# MFM-223 [18] = assay: as above
# Summary of the method: as §2
# CAL-51 [19] = assay: as above
# Summary of the method: as §2
# MDA-MB-436 [20] = assay: as above
# Summary of the method: as §2
# Hs578T = assay: as above
# Summary of the method: as §2
# HCC1143 [21] = assay: as above
# Summary of the method: as §2
# SK-BR-3 [22] = assay: as above
# Summary of the method: as §2
# BT-549 [23] = assay: as above
# Summary of the method: as §2
# BT-474 = assay: as above
# Summary of the method: as §2
# CAL-85-1 [24] = assay: as above
# Summary of the method: as §2
# MDA-MB-453 = assay: as above
# Summary of the method: as §2
structure (smiles),measurement,setting,value
Cn1cncc1[C@@](N)(c1ccc(Cl)cc1)c1ccc2c(c1)c(-c1cccc(Cl)c1)cc(=O)n2C [Tipifarnib],drug sensitivity score,MDA-MB-231 [1],0
same,drug sensitivity score,HCC1937 [2],6.28
same,drug sensitivity score,DU-4475 [3],8.37
same,drug sensitivity score,CAL-148 [4],7.28
same,drug sensitivity score,HCC1599 [5],1.29
same,drug sensitivity score,CAL-120,3.76
same,drug sensitivity score,MFM-223 [6],6.28
same,drug sensitivity score,CAL-51 [7],11.4
same,drug sensitivity score,MDA-MB-436 [8],10.2
same,drug sensitivity score,HCC1143 [9],0
same,drug sensitivity score,SK-BR-3 [10],11.9
same,drug sensitivity score,BT-549 [11],5.49
same,drug sensitivity score,CAL-85-1 [12],1.05
same,normalised viability,MDA-MB-231 [13]; 1000 nM,61.4%
same,normalised viability,HCC1937 [14]; 1000 nM,43.6%
same,normalised viability,MDA-MB-468; 1000 nM,95.5%
same,normalised viability,DU-4475 [15]; 30 nM,69.3%
same,normalised viability,CAL-148 [16]; 30 nM,74.1%
same,normalised viability,HCC1599 [17]; 1000 nM,62.2%
same,normalised viability,MFM-223 [18]; 1000 nM,67.7%
same,normalised viability,CAL-51 [19]; 30 nM,95.5%
same,normalised viability,MDA-MB-436 [20]; 1000 nM,82.9%
same,normalised viability,Hs578T; 1000 nM,69.2%
same,normalised viability,HCC1143 [21]; 1000 nM,59.1%
same,normalised viability,SK-BR-3 [22]; 1000 nM,66.1%
same,normalised viability,BT-549 [23]; 1000 nM,75.8%
same,normalised viability,BT-474; 1000 nM,84.4%
same,normalised viability,CAL-85-1 [24]; 30 nM,70.1%
same,normalised viability,MDA-MB-453; 30 nM,82.2%
CC[C@]1(O)C[C@H]2CN(CCc3c([nH]c4ccccc34)[C@@](C(=O)OC)(c3cc4c(cc3OC)N(C=O)[C@H]3[C@@](O)(C(=O)OC)[C@H](OC(C)=O)[C@]5(CC)C=CCN6CC[C@]43[C@@H]65)C2)C1 [Vincristine],drug sensitivity score,MDA-MB-231 [1],11.5
same,drug sensitivity score,HCC1937 [2],7.53
same,drug sensitivity score,DU-4475 [3],6.4
same,drug sensitivity score,CAL-148 [4],12.7
same,drug sensitivity score,HCC1599 [5],20
same,drug sensitivity score,CAL-120,11.1
same,drug sensitivity score,MFM-223 [6],11.6
same,drug sensitivity score,CAL-51 [7],11.7
same,drug sensitivity score,MDA-MB-436 [8],17.1
same,drug sensitivity score,HCC1143 [9],13.6
same,drug sensitivity score,SK-BR-3 [10],27.7
same,drug sensitivity score,BT-549 [11],21.1
same,drug sensitivity score,CAL-85-1 [12],19.2
same,normalised viability,MDA-MB-231 [13]; 100 nM,15.5%
same,normalised viability,MDA-MB-231 [13]; 1000 nM,14.3%
same,normalised viability,HCC1937 [14]; 100 nM,13.8%
same,normalised viability,HCC1937 [14]; 1000 nM,15.1%
same,normalised viability,MDA-MB-468; 100 nM,33.4%
same,normalised viability,MDA-MB-468; 1000 nM,33.2%
same,normalised viability,DU-4475 [15]; 3 nM,94.7%
same,normalised viability,DU-4475 [15]; 30 nM,48.9%
same,normalised viability,CAL-148 [16]; 3 nM,88.5%
same,normalised viability,CAL-148 [16]; 30 nM,23.2%
same,normalised viability,HCC1599 [17]; 100 nM,59.3%
same,normalised viability,HCC1599 [17]; 1000 nM,48%
same,normalised viability,MFM-223 [18]; 100 nM,40.2%
same,normalised viability,MFM-223 [18]; 1000 nM,28.1%
same,normalised viability,CAL-51 [19]; 3 nM,99%
same,normalised viability,CAL-51 [19]; 30 nM,72.1%
same,normalised viability,MDA-MB-436 [20]; 100 nM,35.4%
same,normalised viability,MDA-MB-436 [20]; 1000 nM,39.5%
same,normalised viability,Hs578T; 100 nM,17.7%
same,normalised viability,Hs578T; 1000 nM,16.8%
same,normalised viability,HCC1143 [21]; 100 nM,38.8%
same,normalised viability,HCC1143 [21]; 1000 nM,35.8%
same,normalised viability,SK-BR-3 [22]; 100 nM,17.1%
same,normalised viability,SK-BR-3 [22]; 1000 nM,17.2%
same,normalised viability,BT-549 [23]; 100 nM,22.3%
same,normalised viability,BT-549 [23]; 1000 nM,16.2%
same,normalised viability,BT-474; 100 nM,52%
same,normalised viability,BT-474; 1000 nM,50.6%
same,normalised viability,CAL-85-1 [24]; 3 nM,89.9%
same,normalised viability,CAL-85-1 [24]; 30 nM,33%
same,normalised viability,MDA-MB-453; 3 nM,92.1%
same,normalised viability,MDA-MB-453; 30 nM,22.6%
COc1ccccc1S(=O)(=O)Nc1ccc2c(c1)CN(C)C(=O)N2 [PFI-1],drug sensitivity score,MDA-MB-231 [1],1.83
same,drug sensitivity score,HCC1937 [2],0
same,drug sensitivity score,DU-4475 [3],0.973
same,drug sensitivity score,CAL-148 [4],0
same,drug sensitivity score,HCC1599 [5],0
same,drug sensitivity score,CAL-120,2.01
same,drug sensitivity score,MFM-223 [6],1.13
same,drug sensitivity score,CAL-51 [7],3.76
same,drug sensitivity score,MDA-MB-436 [8],1.33
same,drug sensitivity score,HCC1143 [9],0
same,drug sensitivity score,SK-BR-3 [10],0
same,drug sensitivity score,BT-549 [11],5.52
same,drug sensitivity score,CAL-85-1 [12],3.01
CC(C)(C#N)c1cc(Cn2cncn2)cc(C(C)(C)C#N)c1 [Anastrozole],drug sensitivity score,MDA-MB-231 [1],0
same,drug sensitivity score,HCC1937 [2],0
same,drug sensitivity score,DU-4475 [3],0
same,drug sensitivity score,CAL-148 [4],0
same,drug sensitivity score,HCC1599 [5],0
same,drug sensitivity score,CAL-120,0
same,drug sensitivity score,MFM-223 [6],0
same,drug sensitivity score,CAL-51 [7],0
same,drug sensitivity score,MDA-MB-436 [8],0
same,drug sensitivity score,HCC1143 [9],0
same,drug sensitivity score,SK-BR-3 [10],0
same,drug sensitivity score,BT-549 [11],0
same,drug sensitivity score,CAL-85-1 [12],0
same,normalised viability,MDA-MB-231 [13]; 1000 nM,80.4%
same,normalised viability,HCC1937 [14]; 1000 nM,95.4%
same,normalised viability,MDA-MB-468; 1000 nM,101%
same,normalised viability,DU-4475 [15]; 30 nM,94.2%
same,normalised viability,CAL-148 [16]; 30 nM,96.8%
same,normalised viability,HCC1599 [17]; 1000 nM,88.3%
same,normalised viability,MFM-223 [18]; 1000 nM,90.4%
same,normalised viability,CAL-51 [19]; 30 nM,106%
same,normalised viability,MDA-MB-436 [20]; 1000 nM,83.6%
same,normalised viability,Hs578T; 1000 nM,95.7%
same,normalised viability,HCC1143 [21]; 1000 nM,83.5%
same,normalised viability,SK-BR-3 [22]; 1000 nM,98.7%
same,normalised viability,BT-549 [23]; 1000 nM,99.1%
same,normalised viability,BT-474; 1000 nM,101%
same,normalised viability,CAL-85-1 [24]; 30 nM,86.5%
same,normalised viability,MDA-MB-453; 30 nM,91%
Cn1c(=O)n(-c2ccc(C(C)(C)C#N)cc2)c2c3cc(-c4cnc5ccccc5c4)ccc3ncc21 [NVP-BEZ235],normalised viability,MDA-MB-231 [13]; 100 nM,26.8%
same,normalised viability,HCC1937 [14]; 100 nM,47.4%
same,normalised viability,MDA-MB-468; 100 nM,37%
same,normalised viability,DU-4475 [15]; 3 nM,107%
same,normalised viability,CAL-148 [16]; 3 nM,93%
same,normalised viability,HCC1599 [17]; 100 nM,64.8%
same,normalised viability,MFM-223 [18]; 100 nM,24.5%
same,normalised viability,CAL-51 [19]; 3 nM,84.7%
same,normalised viability,MDA-MB-436 [20]; 100 nM,68.2%
same,normalised viability,Hs578T; 100 nM,32.5%
same,normalised viability,HCC1143 [21]; 100 nM,37.9%
same,normalised viability,SK-BR-3 [22]; 100 nM,21.9%
same,normalised viability,BT-549 [23]; 100 nM,21.7%
same,normalised viability,BT-474; 100 nM,42.9%
same,normalised viability,CAL-85-1 [24]; 3 nM,84.5%
same,normalised viability,MDA-MB-453; 3 nM,87.9%
COc1ccc(-c2ccc3c(N4CCOC[C@@H]4C)nc(N4CCOC[C@@H]4C)nc3n2)cc1CO [AZD8055],drug sensitivity score,MDA-MB-231 [1],16.8
same,drug sensitivity score,HCC1937 [2],14.9
same,drug sensitivity score,DU-4475 [3],16.5
same,drug sensitivity score,CAL-148 [4],22.8
same,drug sensitivity score,HCC1599 [5],5.62
same,drug sensitivity score,CAL-120,23.8
same,drug sensitivity score,MFM-223 [6],23.8
same,drug sensitivity score,CAL-51 [7],23.4
same,drug sensitivity score,MDA-MB-436 [8],18.9
same,drug sensitivity score,HCC1143 [9],20.2
same,drug sensitivity score,SK-BR-3 [10],30.3
same,drug sensitivity score,BT-549 [11],23.9
same,drug sensitivity score,CAL-85-1 [12],22.2
same,normalised viability,MDA-MB-231 [13]; 1000 nM,23.9%
same,normalised viability,HCC1937 [14]; 1000 nM,32.6%
same,normalised viability,MDA-MB-468; 1000 nM,29.1%
same,normalised viability,DU-4475 [15]; 30 nM,75.8%
same,normalised viability,CAL-148 [16]; 30 nM,53%
same,normalised viability,HCC1599 [17]; 1000 nM,46.4%
same,normalised viability,MFM-223 [18]; 1000 nM,18%
same,normalised viability,CAL-51 [19]; 30 nM,47.5%
same,normalised viability,MDA-MB-436 [20]; 1000 nM,32.5%
same,normalised viability,Hs578T; 1000 nM,23.7%
same,normalised viability,HCC1143 [21]; 1000 nM,32.5%
same,normalised viability,SK-BR-3 [22]; 1000 nM,13%
same,normalised viability,BT-549 [23]; 1000 nM,18.7%
same,normalised viability,BT-474; 1000 nM,26.9%
same,normalised viability,CAL-85-1 [24]; 30 nM,56.9%
same,normalised viability,MDA-MB-453; 30 nM,33.6%
